The values below come from paper PMC11406516, “The Tuberculosis Drug Candidate SQ109 and Its Analogs Have Multistage Activity against Plasmodium falciparum” (ACS Infectious Diseases, 2024).

Marks after values point to notes of the source that are not given here.

In one data set the test system is PfK1. As to the kind of experiment: SYBR Green I proliferation assay, asexual blood stages, multidrug-resistant K1. The following applies: Plasmodium falciparum, K1, read-out: Pf ABS IC50 K1.
The subject of the next data set is oocyst formation. Particulars: cited from earlier work.
A further data set is described as follows: in vitro. Type of data set: in vitro ADME. Particulars: microsomes. As to the method:
The microsomal stability assay used a single-point assay design (Di et al., 2004). Briefly, the compounds were incubated at 1 μM in human, rat, and mouse liver microsomes (0.4 mg/mL) for 30 min at 37 °C. Reactions were quenched by adding ice-cold acetonitrile containing internal standard (carbamazepine, 0.0236 μg/mL). The samples were then centrifuged, and the samples were analyzed by liquid chromatography with tandem mass spectrometry (LC-MS/MS) (Agilent Rapid Resolution HPLC, AB SCIEX 4500 MS) for the disappearance of the parent compound. Half-life, clearance and hepatic […] ratios were determined using standard equations.

The test system of the next data set is male gametes (PfNF54). The arrangement: method as in Reader et al.[4]. Particulars: ref Reader et al.[4]; cited from earlier work.
A further data set concerns PfDd2 parasites. Kind of data set: Asexual blood stage activity, chloroquine-resistant Dd2. The following applies: Plasmodium falciparum, DD2, read-out: Pf ABS IC50 (Dd2). Type of data set: cell-based. The text has this:
This strain is highly resistant to chloroquine and other antimalarials and is associated with increased export of e.g., chloroquine from the digestive vacuole.[23] This phenotype was also replicated in PfDd2 parasites, also resistant to chloroquine (among other antimalarials), with 4 and 5 losing activity but 1 similarly active (Table 1). These aromatic compounds may therefore be subject to resistance mechanisms similar to those found with chloroquine.

Data set [1] has as its system African field isolate SB05. As to the kind of experiment: Ex vivo activity on clinical isolate SB05. It is filed as cell-based, Plasmodium falciparum. The text has this: (§1) Since SB03/05 are both multiclonal,[27] this warrants further investigation into the activity of this series toward clinical gametocytes.
(§2) (A) Dose–response analysis of SQ109 on clinical isolates SB03 and SB05 in comparison to lab-adapted NF54 P. falciparum parasites. Data are from at least 2 independent biological repeats, mean ± SE indicated, * P < 0.05 is indicated. (B) IC50 for SQ109 analogs 13 and 19 against a contemporary African field isolate SB05. […] TEXT PRINTED IN THE PICTURE: (A) SQ109/1: IC50 (μM), NF54: 1.58 ± 0.20; IC50 (μM), SB03: 0.63 ± 0.01; IC50 (μM), SB05: 0.90 DOUBTS OF THE COPYIST ABOUT THIS PICTURE: Panel A: the three IC50 values are matched to NF54, SB03 and SB05 only by line style (black dashed, grey solid, grey dashed), not by a printed label beside the numbers.

In data set [2] the test system is immature-stage gametocytes (IGc, stage II/III). As to the kind of experiment: Immature-stage gametocyte activity. Particulars: Plasmodium falciparum, 48 h drug pressure. It is filed as cell-based. As to the method: Figure 1 SQ109 is a gametocyte-targeting compound. (A) IC50 for parent compound SQ109/1 on asexual parasites (ABS), immature-stage gametocytes (IGc, stage II/III), or late-stage gametocytes (LGc, stage IV/V), under 48 h drug pressure. IC50 ABS: 1.58 ± 0.2 μM; IC50 IGc: 0.38 ± 0.10 μM; IC50 LGc: 0.14 ± 0.03 μM; ** P < 0.01 indicates IGc and LGc vs ABS. (B) Chemical structure and summary of the designed structure–activity relationships (SAR-1, SAR-2 and SAR-3) around SQ109/1. Data are from >2 independent biological repeats, mean ± SE indicated, unpaired Student’s t-test applied.

A further data set relates to PfNF54 ABS. The arrangement: method as in Stampolaki et al.[5]. The following applies: drug-sensitive NF54; ref Stampolaki et al.[5]; read-out: Pf ABS IC50 NF54; cited from earlier work.
The test system of a further data set is HepG2 cells. As to the kind of experiment: HepG2 cytotoxicity, LDH release assay. Particulars: Homo sapiens, HepG2, 24 h, read-out: HepG2 EC50. (LDH in the medium is a marker of cell lysis.)
Another data set has as its system female gametes. The arrangement: method as in Reader et al.[4]. Particulars: ref Reader et al.[4]; cited from earlier work.
The test system of a further data set is clinical isolate SB03. As to the kind of experiment: Ex vivo activity on clinical isolate SB03. The following applies: Plasmodium falciparum, read-out: IC50 SB03. It is filed as cell-based.
Description: as §1, §2

The subject of data set [3] is PfNF54 LGc (stage IV/V gametocytes). As to the kind of experiment: PrestoBlue late-stage gametocyte viability assay. Type of data set: cell-based, Plasmodium falciparum. As to the method:
Gametocytogenesis was induced on highly synchronized (>95%) asexual ring-stage parasites from PfNF54 at 0.5% parasitemia and 6% hematocrit and thereafter maintained in glucose-deprived media as previously described.[29],[15] After 3 days, the hematocrit was decreased to 4%. Parasites were maintained in complete culture media supplemented with 50 mM N-acetyl-glucosamine 5–10 days post induction to inhibit proliferation of residual asexual blood stages. Gametocyte progression and morphology was also monitored microscopically using Giemsa-stained thin smears.
activity against the sexual stages of P. falciparum was evaluated using the PrestoBlue fluorescence assay as previously described.[4] Activity was measured on PfNF54 stage IV/V gametocytes (2% gametocytemia, 5% hematocrit) previously seeded with compounds (in non-lethal DMSO) for 48 h drug pressure, after which PrestoBlue reagent was added and incubated for 2 h. Fluorescence was detected in the supernatant at 612 nm. Dihydroartemisinin (DHA) was used as a positive drug control.

[4] abbreviates: 48 h drug treatment at 2 μM, ref Reader et al.[4].

Description for HepG2 cells: Furthermore, compounds were evaluated against late (stage IV/V) gametocytes from PfNF54 (PfNF54 LGc), with viability detected with PrestoBlue,[15] and orthogonally evaluated for toxicity against a human hepatocellular carcinoma line, HepG2.[16]
Human hepatocellular liver carcinoma cells (HepG2) were cultivated in vitro in Dulbecco’s Modified Eagle’s Medium (DMEM) supplemented with 10% (v/v) heat inactivated fetal bovine serum and 1% (v/v) penicillin/streptomycin.[14] Cells were detached with trypsin treatment at 80% confluency and were seeded in 96-well plates to adhere for 24 h under 5% CO2, humid (95%) conditions. Cells were subsequently exposed to drug pressure for 24 h and cytotoxicity was then determined using the lactate dehydrogenase (LDH) release assay through the colorimetric detection at 450 nm, as previously outlined.[4],[16]
Description for PfK1: P. falciparum asexual parasites were cultured from drug-sensitive NF54 (PfNF54) and multidrug resistant strains PfK1. Parasites were maintained in human erythrocytes (O+, suspended at 5% hematocrit) in RPMI-1640 culture medium (23.81 mM sodium bicarbonate, 0.024 mg/mL gentamycin, 25 mM HEPES pH 7.5, 0.2% D-glucose, 0.2 mM hypoxanthine and Albumax II) under hypoxic conditions (5% CO2, 5% O2 and 90% N2) with moderate shaking (60 rpm) at 37 °C. Cultures were synchronized to >95% in the ring stage with 5% (w/v) D-sorbitol treatment.[28]
Activity against the asexual stage of P. falciparum was evaluated using the SYBR Green I-based fluorescence assay as previously described.[4],[16] Cellular proliferation was measured on synchronized in vitro PfNF54 ring-stage parasites (1% parasitemia, 2% hematocrit), following drug pressure for 96 h. Chloroquine was used as the positive drug control for complete inhibition of parasite proliferation.

As a reminder, the IC50 is the midpoint of a concentration-inhibition curve. A word on the microsomal CLint: it is a measure of how fast metabolising enzymes remove a compound, apart from limits set by blood flow. A lower microsomal CLint goes with slow turnover. For orientation: EC50 means the concentration giving half of the maximal effect. For the compound `CC(C)=CCC/C(C)=C/CNCCNC1C2CC3CC(C2)CC1C3` (stereo not drawn) [Compound 1, N-geranyl-N′-(2-adamantyl)ethane-1,2-diamine, reference compound], the half-inhibitory concentration (IC50) in the data set on PfK1 is 3480 ± 240 nM; in the data set with PfDd2 parasites, 1440 nM; in [1] (Plasmodium falciparum, read-out: IC50 SB05), 900 nM; in [2], 380 nM; in the data set on PfNF54 ABS, 1580 ± 200 nM; in the data set with clinical isolate SB03, 630 ± 10 nM. Further, the IC50 in data set [3] (Plasmodium falciparum, stage IV/V gametocytes, 48 h drug pressure, read-out: PfNF54 LGc IC50) stood at 140 ± 30 nM. The “oocyst formation (% inhibition) TBA” value in the data set on oocyst formation (setting [4]) is 36.0 ± 10.6 ^c %. Also, in the data set on oocyst formation (setting [4]), the “oocyst formation (% inhibition) TRA” value is 76.0 ± 4.75 ^c %. Also, in the data set with oocyst formation, the transmission-reducing activity is on record as 80%. Moreover, the microsomal CLint at 1 µM in the data set “in vitro” (human) stood at 442 µL/min/mg; in the data set “in vitro” (mouse) it was 410 µL/min/mg; in the data set “in vitro” (rat), 385 µL/min/mg. In the data set on male gametes (PfNF54), the “male gamete inhibition %” value is 72.98 ± 5.97 ^c %. The “shift in IC50, clinical isolates vs NF54” value in data set [1] (contemporary African clinical isolates ex vivo) is listed as “no significant shift”. Further, in the data set on HepG2 cells, the EC50 was determined as 9210 ± 1990 nM. Moreover, the “female gamete inhibition %” value with female gametes is reported as 51.74 ± 5.40 ^c %. In addition, the “selectivity toward LGc compared to ABS” value in [3] (LGc IC50 vs ABS IC50) was greater than 10 fold.
